{"source": "patent US10501516B2", "about": "“Peptide compound” (TAKEDA PHARMACEUTICAL COMPANY LIMITED, priority 2016, dated 2019)", "system": "Male C57BL/6J mice", "test": "Conditioned taste aversion (CTA) test", "type": "in vivo, mouse", "conditions": "10 nmol/kg s.c.", "procedure": "Male C57BL/6J (9 weeks old) mice were habituated to time-restricted bottled water supply (2-3 hours/day) and subcutaneous injection of saline for 1 week. Mice were divided into the groups based on the data of body weight and water intake. CTA test was performed according to the following protocol. On day 1 for the first conditioning, mice were given 0.1% sodium saccharin solution to drink for 3 hours. Ten-minutes after supplying the saccharin solution, vehicles, liraglutides and P41 were administered subcutaneously. […] On day 2, mice were given tap water for 3 hours and subcutaneous injection of saline after water supply. On day 3, the second conditioning was conducted as the same procedure used on day 1. On day 4, mice were given tap water for 3 hours without subcutaneous injection. On day 5, both tap water and saccharin solution were supplied to mice for 3 hours without subcutaneous injection and the intake of each fluid was measured. Saccharin preference ratio (%) was calculated according to the following equation: {(amount of saccharin intake)/(amount of saccharin intake+amount of water intake)}×100.", "data": [{"smiles": "CCCCCCCCCCCCCCCC(=O)N[C@@H](CCC(=O)NCCCC[C@H](NC(=O)[C@H](C)NC(=O)[C@H](C)NC(=O)[C@H](CCC(N)=O)NC(=O)CNC(=O)[C@H](CCC(=O)O)NC(=O)[C@H](CC(C)C)NC(=O)[C@H](Cc1ccc(O)cc1)NC(=O)[C@H](CO)NC(=O)[C@H](CO)NC(=O)[C@@H](NC(=O)[C@H](CC(=O)O)NC(=O)[C@H](CO)NC(=O)[C@@H](NC(=O)[C@H](Cc1ccccc1)NC(=O)[C@@H](NC(=O)CNC(=O)[C@H](CCC(=O)O)NC(=O)[C@H](C)NC(=O)[C@@H](N)Cc1cnc[nH]1)[C@@H](C)O)[C@@H](C)O)C(C)C)C(=O)N[C@@H](CCC(=O)O)C(=O)N[C@@H](Cc1ccccc1)C(=O)N[C@H](C(=O)N[C@@H](C)C(=O)N[C@@H](Cc1c[nH]c2ccccc12)C(=O)N[C@@H](CC(C)C)C(=O)N[C@H](C(=O)N[C@@H](CCCNC(=N)N)C(=O)NCC(=O)N[C@@H](CCCNC(=N)N)C(=O)NCC(=O)O)C(C)C)[C@@H](C)CC)C(=O)O", "note": "[Liraglutide, liraglutide, reference compound]", "values": [{"measurement": "induction of conditioned taste aversion (emetic effects)", "value": "significantly decreased saccharin preference ratio"}]}]}
